Measurements published in PMC9457941, “Synthesis and Kinase Inhibitory Potencies of Pyrazolo[3,4-g]isoquinolines” (Molecules, 2022).

Test system: Haspin, CLK1, DYRK1A, CDK9/Cyclin T, GSK-3β, CK1ε, CDK5/p25 and Pim1
Assay: Panel of eight protein kinases (ADP-Glo), statements across kinases
Type: biochemical
Conditions: 1 μM compound
Description: It should be noted that due to solubility issues, compound 1a could not be tested; only the corresponding methane sulfonate salt 1a’ was evaluated. The percentage of residual kinase activity was evaluated at 10 μM and 1 μM compound concentrations. […].
Kinase enzymatic activities were assayed in 384 well plates using the ADP-GloTM assay kit (Promega, Madison, WI, USA) according to the manufacturer’s guidance. Briefly, the reactions were carried out in a final volume of 6 μL for 30 min at 30 °C in an appropriate kinase buffer (10 mM MgCl2, 1 mM EGTA, 1 mM DTT, 25 mM Tris-HCl pH 7.5, 50 μg/mL heparin), with either protein or peptide as substrate in the presence of 10 μM ATP (40 mM Tris pH 7.5, 20 mM MgCl2 and 0.1 mg/mL of BSA). Afterward, 6 μL of ADP-GloTM Kinase Reagent was added to stop the kinase reaction. After an incubation time of 50 min at room temperature (RT), 12 μL of Kinase Detection Reagent was added for 1 h at RT. The transmitted signal was measured using the Envision (Perkin Elmer, Waltham, MA, USA) microplate luminometer and expressed in relative light unit (RLU). In order to determine the half maximal inhibitory concentration (IC50), the assays were performed in duplicate in the absence or presence of increasing doses of the tested compounds. […] Kinase activities are expressed in the percentage of maximal activity, i.e., measured in the absence of an inhibitor. […]

Row | SMILES | kinases inhibited to more than 50% at 1 μM
1 | Nc1c2ccncc2cc2cn[nH]c12 [Compound 2a, 1-H-pyrazolo[3,4-g]isoquinolin-9-amine] | six out of eight

Biological target: T1, Pim-1 (Homo sapiens, UniProt P11309)
T1 construct: host or cells: bacteria
Assay: ADP-Glo kinase inhibition assay, Pim-1
Type: biochemical
Conditions: 1 μM compound, 10 μM ATP, duplicate; read-out: PIM1 % residual activity at 1 μM
Description: (§1) Kinase enzymatic activities were assayed in 384 well plates using the ADP-GloTM assay kit (Promega, Madison, WI, USA) according to the manufacturer’s guidance. Briefly, the reactions were carried out in a final volume of 6 μL for 30 min at 30 °C in an appropriate kinase buffer (10 mM MgCl2, 1 mM EGTA, 1 mM DTT, 25 mM Tris-HCl pH 7.5, 50 μg/mL heparin), with either protein or peptide as substrate in the presence of 10 μM ATP (40 mM Tris pH 7.5, 20 mM MgCl2 and 0.1 mg/mL of BSA). Afterward, 6 μL of ADP-GloTM Kinase Reagent was added to stop the kinase reaction. After an incubation time of 50 min at room temperature (RT), 12 μL of Kinase Detection Reagent was added for 1 h at RT. The transmitted signal was measured using the Envision (Perkin Elmer, Waltham, MA, USA) microplate luminometer and expressed in relative light unit (RLU). In order to determine the half maximal inhibitory concentration (IC50), the assays were performed in duplicate in the absence or presence of increasing doses of the tested compounds. GraphPad Prism6 software (GraphPad Software, San Diego, CA, USA) was used to fit dose–response curves and to determine the IC50 values. Kinase activities are expressed in the percentage of maximal activity, i.e., measured in the absence of an inhibitor. Peptide substrates were obtained from Proteogenix (Schiltigheim, France).
(§2) The following protein kinases were analyzed in this study: CDK5/p25 (human, recombinant, expressed in bacteria) was assayed with 0.8 μg/μL of histone H1 as substrate; CDK9/CyclinT (human, recombinant, expressed by baculovirus in Sf9 insect cells) were assayed with 0.27 μg/μL of the following peptide: […], as substrate; CK1ε (human, recombinant, expressed by baculovirus in Sf9 insect cells) was assayed with 0.022 μg/μL of the following peptide: […]pAYSITA (“Sp” stands for phosphorylated serine) as CK1-specific substrate; GSK3β (human, recombinant, expressed by baculovirus in Sf9 insect cells) were assayed with 0.010 μg/μL of GS-1 peptide, a GSK-3-selective substrate ([…]pEDEEE); Haspin-kd (human, kinase domain, amino acids 470–798, recombinant, expressed in bacteria) was assayed with 0.007 μg/μL of histone H3 (1–21) peptide ([…]) as substrate; Pim-1 (human proto-oncogene, recombinant, expressed in bacteria) was assayed with 0.8 μg/μL of histone H1 as substrate; MmCLK1 (from Mus musculus, recombinant, expressed in bacteria) was assayed with 0.027 μg/μL of the following peptide: […] as substrate; RnDYRK1A-kd (Rattus norvegicus, amino acids 1–499 including the kinase domain, recombinant, expressed in bacteria, DNA vector kindly provided by Dr. W. Becker, Aachen, Germany) was assayed with 0.033 μg/μL of the following peptide: […] as substrate.

T1 sequence (P11309 whole entry): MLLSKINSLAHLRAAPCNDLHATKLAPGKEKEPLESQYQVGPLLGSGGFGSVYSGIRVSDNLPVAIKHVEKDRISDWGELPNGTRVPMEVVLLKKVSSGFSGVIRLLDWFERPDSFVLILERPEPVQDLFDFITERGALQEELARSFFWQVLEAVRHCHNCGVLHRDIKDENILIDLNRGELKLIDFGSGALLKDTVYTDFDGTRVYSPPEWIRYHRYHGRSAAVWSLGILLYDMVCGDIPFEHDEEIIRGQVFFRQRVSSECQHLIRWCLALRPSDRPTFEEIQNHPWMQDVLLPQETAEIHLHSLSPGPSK

Row | SMILES | remaining activity at 1 µM [%]
2 | Nc1c2ccncc2cc2cn[nH]c12 [Compound 2a, 1-H-pyrazolo[3,4-g]isoquinolin-9-amine] | 100

Same assay, conditions: 10 μM compound, 10 μM ATP, duplicate; read-out: PIM1 % residual activity at 10 μM

Row | SMILES | remaining activity at 10 µM [%]
3 | Nc1c2ccncc2cc2cn[nH]c12 [Compound 2a, 1-H-pyrazolo[3,4-g]isoquinolin-9-amine] | 90

Biological target: T2, Haspin-kd (human, kinase domain, amino acids 470–798) (Homo sapiens, UniProt Q8TF76)
T2 construct: Haspin-kd (human, kinase domain, amino acids 470–798, recombinant, expressed in bacteria); host or cells: bacteria
T2 sequence (Q8TF76 470-798): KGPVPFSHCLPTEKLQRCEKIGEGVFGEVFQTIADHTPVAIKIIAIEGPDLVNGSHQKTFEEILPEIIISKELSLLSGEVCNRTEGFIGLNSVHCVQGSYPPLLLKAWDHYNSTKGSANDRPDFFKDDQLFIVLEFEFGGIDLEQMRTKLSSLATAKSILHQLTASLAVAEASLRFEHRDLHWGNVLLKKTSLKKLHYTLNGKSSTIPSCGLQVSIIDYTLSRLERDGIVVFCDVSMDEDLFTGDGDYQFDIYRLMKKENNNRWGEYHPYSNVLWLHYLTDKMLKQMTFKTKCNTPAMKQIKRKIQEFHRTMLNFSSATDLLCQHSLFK
Assay: ADP-Glo kinase inhibition assay, Haspin
Type: biochemical
Conditions: 10 μM ATP, duplicate
Description: as §1

Row | SMILES | IC50 [nM]
4 | Nc1c2ccncc2cc2cn[nH]c12 [Compound 2a, 1-H-pyrazolo[3,4-g]isoquinolin-9-amine] | 127

Same assay, conditions: Haspin vs. CLK1

Row | SMILES | Selectivity Index (SI) Haspin vs. CLK1 = CLK1 IC50/Haspin IC50
5 | Nc1c2ccncc2cc2cn[nH]c12 [Compound 2a, 1-H-pyrazolo[3,4-g]isoquinolin-9-amine] | 2.3

Same assay, conditions: read-out: Haspin % residual activity at 1 μM

Row | SMILES | remaining activity at 1 µM [%]
6 | Nc1c2ccncc2cc2cn[nH]c12 [Compound 2a, 1-H-pyrazolo[3,4-g]isoquinolin-9-amine] | 13

Same assay, conditions: read-out: Haspin % residual activity at 10 μM

Row | SMILES | remaining activity at 10 µM [%]
7 | Nc1c2ccncc2cc2cn[nH]c12 [Compound 2a, 1-H-pyrazolo[3,4-g]isoquinolin-9-amine] | 8

Biological target: T3, CDK9/CyclinT (Homo sapiens, UniProt P50750)
T3 construct: host or cells: Sf9 insect cells (baculovirus)
Assay: ADP-Glo kinase inhibition assay, CDK9/CyclinT
Type: biochemical
Conditions: 10 μM ATP, duplicate
Description: as §1, §2

T3 sequence (O60563 whole entry): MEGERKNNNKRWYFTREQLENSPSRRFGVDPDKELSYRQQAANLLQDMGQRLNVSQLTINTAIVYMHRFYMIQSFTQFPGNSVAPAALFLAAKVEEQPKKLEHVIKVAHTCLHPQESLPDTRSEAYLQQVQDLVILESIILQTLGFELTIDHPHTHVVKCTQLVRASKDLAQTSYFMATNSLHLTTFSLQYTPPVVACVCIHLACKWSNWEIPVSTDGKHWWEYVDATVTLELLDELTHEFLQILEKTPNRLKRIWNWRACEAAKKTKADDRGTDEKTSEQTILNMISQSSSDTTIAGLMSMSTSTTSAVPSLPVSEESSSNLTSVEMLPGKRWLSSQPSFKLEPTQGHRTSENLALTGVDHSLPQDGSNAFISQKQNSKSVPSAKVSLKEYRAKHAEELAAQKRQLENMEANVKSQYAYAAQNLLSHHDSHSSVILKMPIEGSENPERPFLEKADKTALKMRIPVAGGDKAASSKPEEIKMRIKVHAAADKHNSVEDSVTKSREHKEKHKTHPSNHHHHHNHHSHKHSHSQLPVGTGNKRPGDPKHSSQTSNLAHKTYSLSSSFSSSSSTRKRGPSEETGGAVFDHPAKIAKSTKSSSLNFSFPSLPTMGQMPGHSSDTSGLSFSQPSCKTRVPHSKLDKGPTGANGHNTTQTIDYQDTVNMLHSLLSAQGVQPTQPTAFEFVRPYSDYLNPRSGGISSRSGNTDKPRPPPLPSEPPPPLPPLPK
T3 sequence (P50750 whole entry): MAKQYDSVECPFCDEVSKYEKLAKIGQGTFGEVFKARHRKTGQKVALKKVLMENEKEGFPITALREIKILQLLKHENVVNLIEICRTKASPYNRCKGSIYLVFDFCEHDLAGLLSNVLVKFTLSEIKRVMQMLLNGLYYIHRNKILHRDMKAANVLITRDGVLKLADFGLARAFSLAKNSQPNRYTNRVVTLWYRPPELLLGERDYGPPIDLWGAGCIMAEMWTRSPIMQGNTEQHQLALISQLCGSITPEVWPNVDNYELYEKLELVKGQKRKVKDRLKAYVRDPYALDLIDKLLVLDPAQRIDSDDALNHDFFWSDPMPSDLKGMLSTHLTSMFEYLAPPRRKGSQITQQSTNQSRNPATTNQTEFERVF

Row | SMILES | IC50 [nM]
8 | Nc1c2ccncc2cc2cn[nH]c12 [Compound 2a, 1-H-pyrazolo[3,4-g]isoquinolin-9-amine] | 430

Same assay, conditions: read-out: CDK9 % residual activity at 1 μM

Row | SMILES | remaining activity at 1 µM [%]
9 | Nc1c2ccncc2cc2cn[nH]c12 [Compound 2a, 1-H-pyrazolo[3,4-g]isoquinolin-9-amine] | 22

Same assay, conditions: read-out: CDK9 % residual activity at 10 μM

Row | SMILES | remaining activity at 10 µM [%]
10 | Nc1c2ccncc2cc2cn[nH]c12 [Compound 2a, 1-H-pyrazolo[3,4-g]isoquinolin-9-amine] | 10

Biological target: T4, RnDYRK1A-kd (Rattus norvegicus, UniProt Q63470)
T4 construct: RnDYRK1A-kd (Rattus norvegicus, amino acids 1–499 including the kinase domain, recombinant, expressed in bacteria); made in house; host or cells: bacteria
Assay: ADP-Glo kinase inhibition assay, DYRK1A
Type: biochemical
Conditions: 10 μM ATP, duplicate; read-out: DYRK1A IC50
Description: as §1, §2

Row | SMILES | IC50 [nM]
11 | Nc1c2ccncc2cc2cn[nH]c12 [Compound 2a, 1-H-pyrazolo[3,4-g]isoquinolin-9-amine] | 600

Same assay, conditions: read-out: DYRK1A % residual activity at 1 μM

Row | SMILES | remaining activity at 1 µM [%]
12 | Nc1c2ccncc2cc2cn[nH]c12 [Compound 2a, 1-H-pyrazolo[3,4-g]isoquinolin-9-amine] | 32

Same assay, conditions: read-out: DYRK1A % residual activity at 10 μM

Row | SMILES | remaining activity at 10 µM [%]
13 | Nc1c2ccncc2cc2cn[nH]c12 [Compound 2a, 1-H-pyrazolo[3,4-g]isoquinolin-9-amine] | 12

Biological target: T5, GSK3β (Homo sapiens, UniProt P49841)
T5 construct: host or cells: Sf9 insect cells (baculovirus)
Assay: ADP-Glo kinase inhibition assay, GSK3β
Type: biochemical
Conditions: 10 μM ATP, duplicate; read-out: GSK3 IC50
Description: as §1, §2

T5 sequence (P49841 whole entry): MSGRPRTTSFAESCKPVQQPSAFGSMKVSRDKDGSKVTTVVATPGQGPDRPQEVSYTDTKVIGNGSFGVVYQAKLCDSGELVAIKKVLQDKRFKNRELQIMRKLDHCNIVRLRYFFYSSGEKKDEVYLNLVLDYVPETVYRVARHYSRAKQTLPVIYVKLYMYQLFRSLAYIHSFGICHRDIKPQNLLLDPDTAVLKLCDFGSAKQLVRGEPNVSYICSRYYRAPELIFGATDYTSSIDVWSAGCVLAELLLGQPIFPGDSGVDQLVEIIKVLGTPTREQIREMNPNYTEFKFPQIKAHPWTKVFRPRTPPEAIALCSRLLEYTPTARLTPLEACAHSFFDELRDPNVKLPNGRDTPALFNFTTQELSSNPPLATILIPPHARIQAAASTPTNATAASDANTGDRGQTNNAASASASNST

Row | SMILES | IC50 [nM]
14 | Nc1c2ccncc2cc2cn[nH]c12 [Compound 2a, 1-H-pyrazolo[3,4-g]isoquinolin-9-amine] | 411

Same assay, conditions: read-out: GSK3 % residual activity at 1 μM

Row | SMILES | remaining activity at 1 µM [%]
15 | Nc1c2ccncc2cc2cn[nH]c12 [Compound 2a, 1-H-pyrazolo[3,4-g]isoquinolin-9-amine] | 48

Same assay, conditions: read-out: GSK3 % residual activity at 10 μM

Row | SMILES | remaining activity at 10 µM [%]
16 | Nc1c2ccncc2cc2cn[nH]c12 [Compound 2a, 1-H-pyrazolo[3,4-g]isoquinolin-9-amine] | 18

Biological target: T6, CDK5/p25 (Homo sapiens, UniProt Q00535)
T6 construct: host or cells: bacteria
Assay: ADP-Glo kinase inhibition assay, CDK5/p25
Type: biochemical
Conditions: 10 μM ATP, duplicate
Description: as §1, §2

T6 sequence (Q00535 whole entry): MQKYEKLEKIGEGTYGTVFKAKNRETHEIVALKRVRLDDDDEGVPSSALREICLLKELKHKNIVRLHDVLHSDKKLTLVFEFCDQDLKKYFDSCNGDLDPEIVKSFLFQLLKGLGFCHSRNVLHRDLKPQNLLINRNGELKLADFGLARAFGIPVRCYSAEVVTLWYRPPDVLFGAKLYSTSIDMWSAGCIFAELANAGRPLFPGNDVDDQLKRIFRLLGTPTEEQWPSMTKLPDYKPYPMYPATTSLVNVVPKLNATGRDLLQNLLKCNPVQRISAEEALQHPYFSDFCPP
T6 sequence (Q15078 99-307, further chain): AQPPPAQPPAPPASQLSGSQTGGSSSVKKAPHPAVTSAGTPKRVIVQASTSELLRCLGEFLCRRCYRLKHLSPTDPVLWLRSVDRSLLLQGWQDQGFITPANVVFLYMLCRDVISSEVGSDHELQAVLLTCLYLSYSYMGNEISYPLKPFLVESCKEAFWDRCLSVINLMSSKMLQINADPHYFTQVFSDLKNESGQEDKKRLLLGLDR

Row | SMILES | IC50 [nM]
17 | Nc1c2ccncc2cc2cn[nH]c12 [Compound 2a, 1-H-pyrazolo[3,4-g]isoquinolin-9-amine] | 927

Same assay, conditions: read-out: CDK5 % residual activity at 1 μM

Row | SMILES | remaining activity at 1 µM [%]
18 | Nc1c2ccncc2cc2cn[nH]c12 [Compound 2a, 1-H-pyrazolo[3,4-g]isoquinolin-9-amine] | 45

Same assay, conditions: read-out: CDK5 % residual activity at 10 μM

Row | SMILES | remaining activity at 10 µM [%]
19 | Nc1c2ccncc2cc2cn[nH]c12 [Compound 2a, 1-H-pyrazolo[3,4-g]isoquinolin-9-amine] | 17

Biological target: T7, MmCLK1 (Mus musculus, UniProt P22518)
T7 construct: host or cells: bacteria
Assay: ADP-Glo kinase inhibition assay, CLK1
Type: biochemical
Conditions: 10 μM ATP, duplicate; read-out: CLK1 IC50
Description: as §1, §2

T7 sequence (P22518 whole entry): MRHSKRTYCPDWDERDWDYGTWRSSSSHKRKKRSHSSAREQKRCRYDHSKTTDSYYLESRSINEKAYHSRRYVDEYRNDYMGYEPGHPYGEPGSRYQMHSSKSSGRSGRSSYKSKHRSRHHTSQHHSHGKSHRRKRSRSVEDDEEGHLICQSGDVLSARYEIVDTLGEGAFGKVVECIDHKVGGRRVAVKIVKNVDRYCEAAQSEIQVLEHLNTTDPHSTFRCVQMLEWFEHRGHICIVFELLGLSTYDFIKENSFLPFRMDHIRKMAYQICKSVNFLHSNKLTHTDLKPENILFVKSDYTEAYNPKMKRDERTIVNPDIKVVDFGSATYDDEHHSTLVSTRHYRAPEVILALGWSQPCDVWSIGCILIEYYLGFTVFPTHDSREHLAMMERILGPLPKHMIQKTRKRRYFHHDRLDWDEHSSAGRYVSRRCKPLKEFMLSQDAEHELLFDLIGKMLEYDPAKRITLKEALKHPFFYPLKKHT

Row | SMILES | IC50 [nM]
20 | Nc1c2ccncc2cc2cn[nH]c12 [Compound 2a, 1-H-pyrazolo[3,4-g]isoquinolin-9-amine] | 296

Same assay, conditions: read-out: CLK1 % residual activity at 1 μM

Row | SMILES | remaining activity at 1 µM [%]
21 | Nc1c2ccncc2cc2cn[nH]c12 [Compound 2a, 1-H-pyrazolo[3,4-g]isoquinolin-9-amine] | 20

Same assay, conditions: read-out: CLK1 % residual activity at 10 μM

Row | SMILES | remaining activity at 10 µM [%]
22 | Nc1c2ccncc2cc2cn[nH]c12 [Compound 2a, 1-H-pyrazolo[3,4-g]isoquinolin-9-amine] | 8

Biological target: T8, CK1ε (Homo sapiens, UniProt P49674)
T8 construct: host or cells: Sf9 insect cells (baculovirus)
Assay: ADP-Glo kinase inhibition assay, CK1ε
Type: biochemical
Conditions: 1 μM compound, 10 μM ATP, duplicate; read-out: CK1 % residual activity at 1 μM
Description: as §1, §2

T8 sequence (P49674 whole entry): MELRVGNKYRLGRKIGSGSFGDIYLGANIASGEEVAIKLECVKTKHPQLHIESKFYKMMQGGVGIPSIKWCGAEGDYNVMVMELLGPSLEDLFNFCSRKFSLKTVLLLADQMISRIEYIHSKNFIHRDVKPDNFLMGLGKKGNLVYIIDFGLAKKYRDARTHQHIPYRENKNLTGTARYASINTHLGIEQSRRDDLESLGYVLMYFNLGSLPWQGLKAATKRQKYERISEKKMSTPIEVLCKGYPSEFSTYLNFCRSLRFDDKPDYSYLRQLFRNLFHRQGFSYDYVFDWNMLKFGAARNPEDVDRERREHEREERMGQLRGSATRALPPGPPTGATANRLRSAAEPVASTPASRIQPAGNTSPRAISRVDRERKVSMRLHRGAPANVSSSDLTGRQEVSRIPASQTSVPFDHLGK

Row | SMILES | remaining activity at 1 µM [%]
23 | Nc1c2ccncc2cc2cn[nH]c12 [Compound 2a, 1-H-pyrazolo[3,4-g]isoquinolin-9-amine] | 71

Same assay, conditions: 10 μM compound, 10 μM ATP, duplicate; read-out: CK1 % residual activity at 10 μM

Row | SMILES | remaining activity at 10 µM [%]
24 | Nc1c2ccncc2cc2cn[nH]c12 [Compound 2a, 1-H-pyrazolo[3,4-g]isoquinolin-9-amine] | 28

Test system: not given
Assay: not given
Conditions: not given

Row | SMILES | melting point [°C]
25 | Nc1c2ccncc2cc2cn[nH]c12 [Compound 2a, 1-H-pyrazolo[3,4-g]isoquinolin-9-amine] | > 250
